In US10196353B2, “Chemical compounds” (GlaxoSmithKline Intellectual Property (No. 2) Limited, priority 2012, dated 2019):

What was measured:
[1] = molecular target: androgen receptor (MBP-hAR-LBD, rat androgen ligand binding domain) (Rattus norvegicus (Rat), UniProt P15207); assay: Androgen receptor fluorescence polarization assay; settings: read-out: % Max
From the text: • The following abbreviations and sources of materials are used • Fluormone PL Red—a commercially available PR fluoroprobe (Invitrogen, P2964) • Fluormone GS Red—a commercially available GR fluoroprobe (PanVera Corp, Product No P2894) • Fluormone AL Red—a commercially available AR fluoroprobe (Invitrogen, PV4294,) • MBP-hPR-LBD—maltose binding protein Purified human progesterone ligand binding domain (made in house) • GR—purified human glucocorticoid receptor (PanVera Corp, Product No P2812) • MBP-hAR-LBD—maltose binding protein Purified rat androgen ligand binding domain (made in house) • PR Screening Buffer—100 mM potassium phosphate (pH 7.4), 100 μG/ml bovine gamma globulin, 15% ethylene glycol, 10% glycerol with 2 mM CHAPS, 1 mM DTT added fresh and 4% DMSO added fresh (final of 5% DMSO in assay with 1% concentration coming from compound dispense) • AR Screening Buffer—50 mM Tris pH 7.5, 100 mM Ammonium Sulfate, 20% glycerol, 3% xylitol with 5 mM Chaps, 2 mM DTT added fresh and 4% DMSO added fresh (final of 5% DMSO in assay with 1% concentration coming from compound dispense) • GR Screening Buffer—100 mM potassium phosphate (pH 7.4), 200 mM Na2MoO2, 1 mM EDTA, 20% DMSO (PanVera Corp Product No P2814) with GR stabilizing peptide (100 μM) (PanVera Corp Product No P2815) • DTT—dithiothreitol (PanVera Corp Product No P2325) • Discovery Analyst—is an FP reader • DMSO—dimethylsulphoxide Progesterone Receptor Fluorescence Polarization Assay:
The androgen receptor fluorescence polarization assay is used to investigate the interaction of the compounds with the androgen receptor.
Compounds are added to the 384 well black low-volume plates to a final volume of 0.1 μL. DTT and DMSO are added to the chilled assay buffer just before beginning assay. Sufficient Fluormone AL Red and AR-LBD are defrosted on ice and added to the chilled buffer in a glass tube to give a final concentration of 1 nM and 100 nM, (for current batch) respectively. A volume of 10 μL of the assay mix is added to compound plates with a multidrop. […] The plates are counted in a Discovery Analyst with suitable 535 nm excitation and 590 nm emission interference filters (Dichroic 561 nM). […] Test compounds are dissolved and diluted in DMSO. Compounds are assayed in singlicate, a four parameter curve fit of the following form being applied
[formula] where a is the minimum, b is the Hill slope, c is the IC50 and d is the maximum.
Data is presented as the mean pIC50 with the standard error of the mean of n experiments.

[2] = tested on: castrated male Sprague-Dawley rats; assay: Castrated male rat model (ORX rat); format: in vivo; settings: for prostate sparing: defined as at least a 2:1 ratio of levator ani ED50 to prostate ED50; for levator ani hypertrophy: favorable = 30% or greater increase in levator ani weight vs vehicle-treated castrates, dosed orally at up to 10 mg/kg/day
From the text: The activity of the compounds of the present invention as modulators of the androgen receptor was investigated using a castrated male rat model (ORX) as described in C. D. Kockakian, Pharmac. Therap. B1(2), 149-177 (1975); C. Tobin and Y. Joubert, Developmental Biology 146, 131-138 (1991); J. Antonio, J. D. Wilson and F. W. George, J Appl. Physiol. 87(6) 2016-2019 (1999)) the disclosures of which herein are included by reference.
Androgens have been identified as playing important roles in the maintenance and growth of many tissues in both animals and humans. Muscles, like the levator ani and bulbocavernosus, and sexual accessory organs, such as the prostate glands and seminal vesicles have high expression levels of the androgen receptor and are known to respond quickly to exogenous androgen addition or androgen deprivation through testicular ablation. Castration produces dramatic atrophy of muscle and sexual accessory organs; whereas the administration of exogenous androgens to the castrated animal results in effective hypertrophy of these muscles and sexual accessory organs. Although the levator ani muscle, also known as the dorsal bulbocavernosus, is not ‘true skeletal muscle’ and definitely sex-linked, it is reasonable to use this muscle to screen muscle anabolic activities of test compounds because of its androgen responsiveness and simplicity of removal.
Male Sprague-Dawley rats weighing 160-180 grams were used in the assay. The rats were singly caged upon receiving and throughout the study. Bilateral orchidectomies were performed in sterilized surgical conditions under isoflurane anesthesia. An anteroposterior incision was made in the scrotum. The testicles were exteriorized and the spermatic artery and vas deferens were ligated with 4.0 silk 0.5 cm proximal to the ligation site. The testicles then were removed by a surgical scissors distal to the ligation sites. The tissue stumps were returned to the scrotum, the scrotum and overlying skin were closed by a surgical stapler. The Sham-ORX rats underwent all procedures except ligation and scissors cutting. The rats were assigned randomly into study groups 7-10 days post surgery based on the body weight.
Dihydrotestosterone (DHT) and the standard SARM, S-22, (J. Pharma. Exper. Thera. Vol 315, p. 230) were used as a positive control (1-10 mg/kg s.c. for DHT and 0.1 to 3 mg/kg p.o. for S-22). Compounds of the current invention were administered subcutaneously or orally for 4-28 days. Alternatively, some compounds of the current invention were administered subcutaneously or orally for 7-49 days. The rats were weighed daily and doses were adjusted accordingly. The general well being of the animal was monitored throughout the course of the study.
At the end of the study, the rats were euthanized in a CO2 chamber. The ventral prostate glands (VP), seminal vesicles (SV), levator ani muscle (LA) and bulbocavernosus (BC) were carefully dissected. The tissues were blotted dry; the weights were recorded, and then saved for histological and molecular analysis. The VP and SV weights serve as androgenic indicators and LA and BC as anabolic indicators. The ratio of anabolic to androgenic activities was used to evaluate the test compounds. Serum luteinizing hormone (LH), follicle stimulating hormone (FSH) and other potential serum markers of anabolic activities were also analyzed.
The compounds shown in Examples 9, 20, 26, 27, 33, 51, 52, and 53 were tested in the castrated male rate model essentially as described above. Test compounds were employed in free or salt form. […] Prostate sparing was defined as at least a 2:1 ratio of levator ani ED50 to prostate ED50. The ED50 is defined as 50% of the maximum response above the vehicle treated castrate level. For shorter term studies (4-7 days), the maximum response is defined as the maximum response from positive control (DHT or standard SARM, S-22) treatment. For the longer term studies (7-49 days), the ED50 is defined as 50% of the eugonadal state. […]

Sequence of androgen receptor (MBP-hAR-LBD, rat androgen ligand binding domain) (P15207 651-882): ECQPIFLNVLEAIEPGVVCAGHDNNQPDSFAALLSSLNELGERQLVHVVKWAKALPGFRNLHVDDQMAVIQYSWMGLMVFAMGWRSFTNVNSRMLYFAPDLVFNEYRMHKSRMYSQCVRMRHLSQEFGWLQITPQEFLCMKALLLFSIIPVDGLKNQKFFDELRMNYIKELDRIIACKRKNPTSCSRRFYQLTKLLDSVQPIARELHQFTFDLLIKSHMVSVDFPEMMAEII

Structure (SMILES)	Emax [1]	prostate sparing [2]	levator ani hypertrophy [2]
CCC(C(=O)OC)n1c(C)cc2c(C(F)(F)F)c(C#N)ccc21 (stereo not shown) [Example 2, Methyl 2-[5-cyano-2-methyl-4-(trifluoromethyl)-1H-indol-1-yl]butanoate]	72%	–	–
Cc1cc2c(C(F)(F)F)c(C#N)ccc2n1C(C)CO (stereo not shown) [Example 7, 1-(1-Hydroxypropan-2-yl)-2-methyl-4-(trifluoromethyl)-1H-indole-5-carbonitrile]	100%	–	–
Cc1cc2c(C(F)(F)F)c(C#N)ccc2n1C(C)CS(C)(=O)=O (stereo not shown) [Example 9, 2-Methyl-1-(1-(methylsulfonyl)propan-2-yl)-4-(trifluoromethyl)-1H-indole-5-carbonitrile]	–	spared the prostate	favorable levator ani hypertrophy
CCCc1cc2c(C(F)(F)F)c(C#N)ccc2n1CC(C)(C)O [Example 12, 1-(2-Hydroxy-2-methylpropyl)-2-propyl-4-(trifluoromethyl)-1H-indole-5-carbonitrile]	90%	–	–
CSCC(C)n1c(C(F)F)cc2c(C#N)c(C#N)ccc21 (stereo not shown) [Example 17, 2-(Difluoromethyl)-1-(1-(methylthio)propan-2-yl)-1H-indole-4,5-dicarbonitrile]	99%	–	–
C[C@H](n1ccc2c(C(F)(F)F)c(C#N)ccc21)C(C)(C)O [Example 21, (S)-1-(3-Hydroxy-3-methylbutan-2-yl)-4-(trifluoromethyl)-1H-indole-5-carbonitrile]	100%	–	–
C[C@@H](n1ccc2c(C(F)(F)F)c(C#N)ccc21)C(C)(C)O [Example 22, (R)-1-(3-Hydroxy-3-methylbutan-2-yl)-4-(trifluoromethyl)-1H-indole-5-carbonitrile]	100%	–	–
CC(CS(C)(=O)=O)n1ccc2c(C(F)(F)F)c(C#N)ccc21 (stereo not shown) [Example 26, 1-(1-(Methylsulfonyl)propan-2-yl)-4-(trifluoromethyl)-1H-indole-5-carbonitrile]	–	spared the prostate	favorable levator ani hypertrophy
C[C@H](CS(C)(=O)=O)n1ccc2c(C(F)(F)F)c(C#N)ccc21 [Example 27, (R)-1-(1-(Methylsulfonyl)propan-2-yl)-4-(trifluoromethyl)-1H-indole-5-carbonitrile]	91%	spared the prostate	favorable levator ani hypertrophy
C[C@H](n1ccc2c(Cl)c(C#N)ccc21)C(C)(C)O [Example 32, (S)-4-Chloro-1-(3-hydroxy-3-methylbutan-2-yl)-1H-indole-5-carbonitrile]	78%	–	–
CC(C)(O)C(C)(C)n1ccc2c(C#N)c(C#N)ccc21 [Example 43, 1-(3-Hydroxy-2,3-dimethylbutan-2-yl)-1H-indole-4,5-dicarbonitrile]	105%	–	–
CC[C@H](c1cncc(C#N)c1)n1ccc2c(C#N)c(C#N)ccc21 [Example 51, (R)-1-(1-(5-Cyanopyridin-3-yl)propyl)-1H-indole-4,5-dicarbonitrile]	–	spared the prostate	favorable levator ani hypertrophy
C[C@@H](n1ccc2c(Cl)c(C#N)ccc21)[C@](C)(O)C(F)(F)F [Example 52, 4-Chloro-1-((2R,3S)-4,4,4-trifluoro-3-hydroxy-3-methylbutan-2-yl)-1H-indole-5-carbonitrile]	97%	spared the prostate	favorable levator ani hypertrophy
C[C@@H](n1ccc2c(C(F)(F)F)c(C#N)ccc21)[C@](C)(O)C(F)(F)F [Example 53, 1-((2R,3S)-4,4,4-Trifluoro-3-hydroxy-3-methylbutan-2-yl)-4-(trifluoromethyl)-1H-indole-5-carbonitrile]	–	spared the prostate	favorable levator ani hypertrophy
